From patent US10034861B2 (priority 2016, dated 2018)
Like-named read-outs stand apart in the source and are kept apart here.

Legend:
Assay type in all cases: biochemical
[1] = target: PDE1C (Homo sapiens (Human), UniProt Q14123); experiment: biochemical
Description: (§1) Table 1 lists the IC50 value for inhibition of PDE1 by the compounds of the invention. […] PDE1 assays are described in the Experimental Section.

[2] = target: PDE1A (Homo sapiens (Human), UniProt P54750); experiment: biochemical; details: 15 nM tritium labelled cAMP, 1 hr at room temperature, SPA beads
Sequence of PDE1A (P54750 whole entry): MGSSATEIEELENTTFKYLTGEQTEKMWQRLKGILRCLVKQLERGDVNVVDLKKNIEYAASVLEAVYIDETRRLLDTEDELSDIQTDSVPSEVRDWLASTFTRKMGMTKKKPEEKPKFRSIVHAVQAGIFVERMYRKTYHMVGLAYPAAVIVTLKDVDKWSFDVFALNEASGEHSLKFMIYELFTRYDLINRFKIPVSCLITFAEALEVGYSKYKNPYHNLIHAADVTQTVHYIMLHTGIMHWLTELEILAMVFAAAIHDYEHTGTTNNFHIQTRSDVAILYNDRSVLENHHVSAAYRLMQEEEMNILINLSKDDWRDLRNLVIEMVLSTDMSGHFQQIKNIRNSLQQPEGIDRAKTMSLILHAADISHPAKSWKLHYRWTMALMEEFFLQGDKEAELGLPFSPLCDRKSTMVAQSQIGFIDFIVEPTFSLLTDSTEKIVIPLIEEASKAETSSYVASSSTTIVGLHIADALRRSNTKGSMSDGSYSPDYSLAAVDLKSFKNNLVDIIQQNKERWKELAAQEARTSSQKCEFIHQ
Description: as §1

[3] = target: PDE1B (Homo sapiens (Human), UniProt Q01064); experiment: PDE1 inhibition assay (PDE1B); details: 15 nM tritium labelled cAMP, 1 hr at room temperature, SPA beads
Sequence of PDE1B (Q01064 whole entry): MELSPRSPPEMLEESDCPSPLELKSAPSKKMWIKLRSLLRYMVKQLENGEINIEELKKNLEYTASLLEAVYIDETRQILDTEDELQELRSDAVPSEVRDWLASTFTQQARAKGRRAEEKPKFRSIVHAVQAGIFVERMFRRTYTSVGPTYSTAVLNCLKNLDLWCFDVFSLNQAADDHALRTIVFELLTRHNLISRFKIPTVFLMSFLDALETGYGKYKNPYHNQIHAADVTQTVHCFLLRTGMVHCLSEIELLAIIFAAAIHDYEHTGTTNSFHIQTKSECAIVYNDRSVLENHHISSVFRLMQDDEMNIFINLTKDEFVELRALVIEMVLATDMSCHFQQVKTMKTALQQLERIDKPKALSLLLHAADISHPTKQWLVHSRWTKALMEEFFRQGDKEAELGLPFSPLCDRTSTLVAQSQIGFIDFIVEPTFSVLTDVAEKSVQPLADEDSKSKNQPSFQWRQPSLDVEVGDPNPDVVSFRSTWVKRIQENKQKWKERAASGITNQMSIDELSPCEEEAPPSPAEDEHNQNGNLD
Description: as §1

[4] = 15 nM tritium labelled cAMP, 1 hr at room temperature, SPA beads

Sequence of PDE1C (Q14123 whole entry): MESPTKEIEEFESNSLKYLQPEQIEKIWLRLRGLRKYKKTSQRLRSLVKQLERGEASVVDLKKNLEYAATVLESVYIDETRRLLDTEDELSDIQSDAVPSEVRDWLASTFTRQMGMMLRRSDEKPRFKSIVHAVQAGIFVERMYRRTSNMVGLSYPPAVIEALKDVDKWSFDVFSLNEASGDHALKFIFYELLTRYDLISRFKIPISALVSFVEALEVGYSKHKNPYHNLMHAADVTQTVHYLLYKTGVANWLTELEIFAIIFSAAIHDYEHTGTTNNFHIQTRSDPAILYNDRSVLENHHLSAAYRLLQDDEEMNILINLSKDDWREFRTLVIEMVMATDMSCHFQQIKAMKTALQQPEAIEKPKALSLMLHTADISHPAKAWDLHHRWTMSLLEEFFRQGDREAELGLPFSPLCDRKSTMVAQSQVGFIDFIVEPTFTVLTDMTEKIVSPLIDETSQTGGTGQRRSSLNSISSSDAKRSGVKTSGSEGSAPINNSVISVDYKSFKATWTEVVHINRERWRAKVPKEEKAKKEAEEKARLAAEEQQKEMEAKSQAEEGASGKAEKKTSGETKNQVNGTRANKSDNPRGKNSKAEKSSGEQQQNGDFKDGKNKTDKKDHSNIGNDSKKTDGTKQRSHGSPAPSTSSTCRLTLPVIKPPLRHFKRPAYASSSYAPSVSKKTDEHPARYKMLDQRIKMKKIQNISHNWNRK

SMILES	IC50 [1, 4]	IC50 [2]	IC50 ([3]; read-out: PDE1B, IC50)	IC50 [1]	IC50 ([3]; PDE1B, IC50 (nM))
CCCn1ncc2nc(-c3cccnc3OCC)cc(NCc3cnn(C)c3)c21 [Example 13, 5-(2-ethoxy-3-pyridyl)-N-[(1-methylpyrazol-4-yl)methyl]-1-propyl-pyrazolo[4,3-b]pyridin-7-amine]	340 nM	90 nM	15 nM	–	–
COc1ncccc1CNc1cc(-c2cccnc2OC2CC2)nc2c(C)nn(C(C)C)c12 [Example 174, 5-(2-cyclopropoxypyridin-3-yl)-1-isopropyl-N-((2-methoxypyridin-3-yl)methyl)-3-methyl-1H-pyrazolo[4,3-b]pyridin-7-amine]	52 nM	18 nM	1.5 nM	–	–
Cc1nn(C(C)C)c2c(NCc3cnn(C)c3)cc(N3CCOC3=O)nc12 [Example 151, 3-[1-isopropyl-3-methyl-7-[(1-methylpyrazol-4-yl)methylamino]pyrazolo[4,3-b]pyridin-5-yl]oxazolidin-2-one]	12 nM	10 nM	4.7 nM	–	–
CCOc1ncccc1-c1cc(NCc2cc(C)n(C)n2)c2c(n1)c(C)nn2C(C)C [Example 54, N-[(1,5-dimethylpyrazol-3-yl)methyl]-5-(2-ethoxy-3-pyridyl)-1-isopropyl-3-methyl-pyrazolo[4,3-b]pyridin-7-amine]	4.6 nM	0.39 nM	0.18 nM	–	–
Cc1nn(C(C)C)c2c(NCc3cnn(C)c3)cc(-c3cnn(C)c3C)nc12 [Example 66, 5-(1,5-dimethylpyrazol-4-yl)-1-isopropyl-3-methyl-N-[(1-methylpyrazol-4-yl)methyl]pyrazolo[4,3-b]pyridin-7-amine]	220 nM	210 nM	59 nM	–	–
CCOc1ncccc1-c1cc(NCc2nccs2)c2c(cnn2C(C)C)n1 [Example 20, 5-(2-ethoxy-3-pyridyl)-1-isopropyl-N-(thiazol-2-ylmethyl)pyrazolo[4,3-b]pyridin-7-amine]	600 nM	520 nM	37 nM	–	–
Cc1nn(C(C)C)c2c(NCc3cnn(C)c3)cc(-n3cncn3)nc12 [Example 185, 1-isopropyl-3-methyl-N-((1-methyl-1H-pyrazol-4-yl)methyl)-5-(1H-1,2,4-triazol-1-yl)-1H-pyrazolo[4,3-b]pyridin-7-amine]	92 nM	100 nM	24 nM	–	–
CCOc1ncccc1-c1cc(NCc2ncn(C)n2)c2c(cnn2C(C)CC)n1 (single isomer, unassigned) [Example 140, 5-(2-ethoxy-3-pyridyl)-1-[1-methylpropyl]-N-[(1-methyl-1,2,4-triazol-3-yl)methyl]pyrazolo[4,3-b]pyridin-7-amine]	–	32 nM	–	52 nM	1.7 nM
CCOc1ncccc1-c1cc(NCc2ncc(C)o2)c2c(n1)c(C)nn2C(C)C [Example 38, 5-(2-ethoxy-3-pyridyl)-1-isopropyl-3-methyl-N-[(5-methyloxazol-2-yl)methyl]pyrazolo[4,3-b]pyridin-7-amine]	13 nM	1.1 nM	0.24 nM	–	–
CCOc1ncccc1-c1cc(NCc2ccc(OC)nc2)c2c(n1)c(C)nn2C(C)C [Example 111, 5-(2-ethoxy-3-pyridyl)-1-isopropyl-N-[(6-methoxy-3-pyridyl)methyl]-3-methyl-pyrazolo[4,3-b]pyridin-7-amine]	68 nM	28 nM	1.4 nM	–	–
CCOc1ncccc1-c1cc(NCc2cnn(C)c2)c2c(n1)c(CF)nn2C(C)C [Example 199, 5-(2-ethoxypyridin-3-yl)-3-(fluoromethyl)-1-isopropyl-N-((1-methyl-1H-pyrazol-4-yl)methyl)-1H-pyrazolo[4,3-b]pyridin-7-amine]	26 nM	7.4 nM	0.75 nM	–	–
CCOc1ncccc1-c1cc(NCc2cn[nH]c2)c2c(n1)c(C)nn2C(C)C [Example 7, 5-(2-ethoxy-3-pyridyl)-1-isopropyl-3-methyl-N-(1H-pyrazol-4-ylmethyl)pyrazolo[4,3-b]pyridin-7-amine]	37 nM	21 nM	1.1 nM	–	–
COc1ncccc1CNc1cc(-c2cccnc2C(F)(F)F)nc2c(C)nn(C(C)C)c12 [Example 183, 1-isopropyl-N-((2-methoxypyridin-3-yl)methyl)-3-methyl-5-(2-(trifluoromethyl)pyridin-3-yl)-1H-pyrazolo[4,3-b]pyridin-7-amine]	350 nM	290 nM	38 nM	–	–
CCOc1ncccc1-c1cc(NCc2csc(C)c2)c2c(n1)c(C)nn2C(C)C [Example 34, 5-(2-ethoxy-3-pyridyl)-1-isopropyl-3-methyl-N-[(5-methyl-3-thienyl)methyl]pyrazolo[4,3-b]pyridin-7-amine]	21 nM	8.1 nM	1.8 nM	–	–
CCOc1ncccc1-c1cc(NCc2cccnc2C(F)(F)F)c2c(n1)c(C)nn2C(C)C [Example 77, 5-(2-ethoxy-3-pyridyl)-1-isopropyl-3-methyl-N-[[2-(trifluoromethyl)-3-pyridyl]methyl]pyrazolo[4,3-b]pyridin-7-amine]	64 nM	21 nM	0.22 nM	–	–
CCOc1ncccc1-c1cc(NCc2ncn(C)n2)c2c(cnn2C(C)C)n1 [Example 56, 5-(2-ethoxy-3-pyridyl)-1-isopropyl-N-[(1-methyl-1,2,4-triazol-3-yl)methyl]pyrazolo[4,3-b]pyridin-7-amine]	45 nM	16 nM	1 nM	–	–
CCOc1ncccc1-c1cc(NCc2ccnc(OC)c2)c2c(n1)c(C)nn2C(C)C [Example 104, 5-(2-ethoxy-3-pyridyl)-1-isopropyl-N-[(2-methoxy-4-pyridyl)methyl]-3-methyl-pyrazolo[4,3-b]pyridin-7-amine]	6.3 nM	2.2 nM	0.16 nM	–	–
COc1ccc(CNc2cc(-c3cccnc3N(C)C)nc3c(C)nn(C(C)C)c23)cc1 [Example 192, 5-[2-(dimethylamino)-3-pyridyl]-1-isopropyl-N-[(4-methoxyphenyl)methyl]-3-methyl-pyrazolo[4,3-b]pyridin-7-amine]	490 nM	630 nM	71 nM	–	–
Cc1nn(C(C)C)c2c(NCc3cnn(C)c3)cc(N3CC(C)OC3=O)nc12 (stereo not drawn) [Example 150, 3-[1-isopropyl-3-methyl-7-[(1-methylpyrazol-4-yl)methylamino]pyrazolo[4,3-b]pyridin-5-yl]-5-methyl-oxazolidin-2-one]	13 nM	44 nM	33 nM	–	–
CCOc1ncccc1-c1cc(NCc2nn[nH]n2)c2c(n1)c(C)nn2C(C)C [Example 99, 5-(2-ethoxy-3-pyridyl)-1-isopropyl-3-methyl-N-(2H-tetrazol-5-ylmethyl)pyrazolo[4,3-b]pyridin-7-amine]	3.8 nM	0.73 nM	0.31 nM	–	–
COc1ccc(CNc2cc(-c3cccnc3OC)nc3c(C)nn(C(C)C)c23)cn1 [Example 96, 1-isopropyl-5-(2-methoxy-3-pyridyl)-N-[(6-methoxy-3-pyridyl)methyl]-3-methyl-pyrazolo[4,3-b]pyridin-7-amine]	5.3 nM	18 nM	3.8 nM	–	–
CCOc1ncccc1-c1cc(NCc2ccccc2)c2c(cnn2C(C)C)n1 [Example 41, N-benzyl-5-(2-ethoxy-3-pyridyl)-1-isopropyl-pyrazolo[4,3-b]pyridin-7-amine]	500 nM	500 nM	45 nM	–	–
